17 compounds from ChEMBL document CHEMBL1201862, “PubChem BioAssay data set” (2004) can be followed below.

Structures can show the parent of a compound that is named as a salt. Activity calls are given as the source filed them.

The target of experiment [1] is Voltage-gated inwardly rectifying potassium channel KCNH2 (Homo sapiens, UniProt Q12809). The note with it: Potency.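 Note: confirmatory quantitative high-throughput screen measuring inhibition of hERG channel activity.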
Experiment [2] deals with T1, Heat shock factor protein 1 (Mus musculus, UniProt P38532).
T1 sequence (P38532 whole entry): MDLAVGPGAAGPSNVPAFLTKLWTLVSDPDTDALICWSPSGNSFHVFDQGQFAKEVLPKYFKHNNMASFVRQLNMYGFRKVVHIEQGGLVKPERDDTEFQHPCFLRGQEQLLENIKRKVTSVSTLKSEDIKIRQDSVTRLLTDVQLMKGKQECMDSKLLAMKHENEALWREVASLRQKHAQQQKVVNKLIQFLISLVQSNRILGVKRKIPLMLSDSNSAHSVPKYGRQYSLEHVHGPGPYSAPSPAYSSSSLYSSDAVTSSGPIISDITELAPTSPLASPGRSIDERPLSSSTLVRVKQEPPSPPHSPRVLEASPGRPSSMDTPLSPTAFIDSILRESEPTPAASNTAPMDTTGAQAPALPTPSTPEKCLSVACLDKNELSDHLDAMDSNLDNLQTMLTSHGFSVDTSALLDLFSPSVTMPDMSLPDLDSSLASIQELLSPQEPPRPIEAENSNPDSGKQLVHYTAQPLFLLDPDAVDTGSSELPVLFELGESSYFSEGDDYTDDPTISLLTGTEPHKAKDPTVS
The experiment can be described thus: enhancement of HSF1-driven luciferase signal – cell-based, NIH3T3, luminescence, dose retest, confirmation (AID 435004).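 Note: stress induced by proteasome inhibitor MG132 added 30 min after compound; luciferase reporter driven by HSF1 response element in NIH3T3 cells; actives raise luminescence as potentiators of the MG132 stress response.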 The experiment is classed as functional.

The next experiment deals with Genome polyprotein (dengue virus type 2, UniProt P29990). The experiment can be described thus: flavivirus cap methylation enzyme inhibition – biochemical, confirmation dose response, primary screen (AID 588689). The experiment is classed as functional.
Chain of Genome polyprotein (P29990 2492-3391 limits assumed): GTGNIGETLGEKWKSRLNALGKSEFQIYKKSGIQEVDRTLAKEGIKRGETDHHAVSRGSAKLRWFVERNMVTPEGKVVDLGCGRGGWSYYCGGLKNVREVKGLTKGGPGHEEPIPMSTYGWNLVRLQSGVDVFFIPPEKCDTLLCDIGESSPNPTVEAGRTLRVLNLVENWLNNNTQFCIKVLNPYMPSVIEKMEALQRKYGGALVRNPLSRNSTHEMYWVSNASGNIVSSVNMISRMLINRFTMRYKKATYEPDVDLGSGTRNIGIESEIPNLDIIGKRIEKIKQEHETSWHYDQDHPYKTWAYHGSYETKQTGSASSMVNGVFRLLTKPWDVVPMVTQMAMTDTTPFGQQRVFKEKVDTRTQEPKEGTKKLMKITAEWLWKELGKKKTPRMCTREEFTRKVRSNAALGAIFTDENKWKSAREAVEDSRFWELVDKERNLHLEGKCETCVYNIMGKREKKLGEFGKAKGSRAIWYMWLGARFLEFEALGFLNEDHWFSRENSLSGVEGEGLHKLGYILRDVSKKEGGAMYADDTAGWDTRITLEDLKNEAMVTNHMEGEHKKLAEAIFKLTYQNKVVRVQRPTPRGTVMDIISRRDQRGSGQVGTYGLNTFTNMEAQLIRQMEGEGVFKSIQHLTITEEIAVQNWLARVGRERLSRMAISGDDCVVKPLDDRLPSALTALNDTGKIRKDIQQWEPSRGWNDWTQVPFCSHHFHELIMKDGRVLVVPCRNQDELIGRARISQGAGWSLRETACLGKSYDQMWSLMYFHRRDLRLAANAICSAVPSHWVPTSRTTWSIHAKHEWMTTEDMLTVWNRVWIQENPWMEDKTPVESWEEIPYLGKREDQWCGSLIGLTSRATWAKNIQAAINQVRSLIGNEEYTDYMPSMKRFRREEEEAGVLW
The subject of the next experiment is HeLa. The experiment can be described thus: ATP-based viability loss in HeLa cells – cell-based, CellTiter-Glo luminescence, cherry-pick samples, cytotoxicity control for MITF activator project, dose response (AID 540259). The format is functional. Conditions: Homo sapiens.
Another experiment has as its target T2, Estrogen receptor (Homo sapiens, UniProt P03372).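 Note: potency for inhibiting coactivator peptide recruitment to the receptor.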
T2 sequence (P03372 whole entry): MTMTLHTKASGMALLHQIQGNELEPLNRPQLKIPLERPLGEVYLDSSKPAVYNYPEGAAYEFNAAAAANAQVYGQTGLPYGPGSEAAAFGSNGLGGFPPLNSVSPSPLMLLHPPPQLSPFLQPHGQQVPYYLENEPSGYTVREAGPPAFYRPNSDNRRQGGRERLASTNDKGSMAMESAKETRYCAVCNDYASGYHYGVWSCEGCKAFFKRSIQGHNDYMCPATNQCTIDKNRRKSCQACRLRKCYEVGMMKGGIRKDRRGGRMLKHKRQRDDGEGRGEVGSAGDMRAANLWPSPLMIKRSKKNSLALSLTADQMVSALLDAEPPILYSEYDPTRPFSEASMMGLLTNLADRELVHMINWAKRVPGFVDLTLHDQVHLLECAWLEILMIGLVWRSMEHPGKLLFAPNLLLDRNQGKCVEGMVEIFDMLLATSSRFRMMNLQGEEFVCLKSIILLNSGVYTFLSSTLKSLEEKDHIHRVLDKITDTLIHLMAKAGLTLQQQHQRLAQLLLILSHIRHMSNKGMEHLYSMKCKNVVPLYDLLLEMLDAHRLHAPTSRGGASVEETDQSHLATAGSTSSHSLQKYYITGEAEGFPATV

For experiment [3], the target named is T3, Polyadenylate-binding protein 1 (Homo sapiens, UniProt P11940). The experiment can be described thus: MLLE domain peptide-binding blockers, IC50 – biochemical, fluorescence polarization, FITC-PAM2 peptide, dose response (AID 602259). The format is functional. Conditions: read-out: IC50_Mean.
T3 sequence (P11940 whole entry, the tested form may be a part): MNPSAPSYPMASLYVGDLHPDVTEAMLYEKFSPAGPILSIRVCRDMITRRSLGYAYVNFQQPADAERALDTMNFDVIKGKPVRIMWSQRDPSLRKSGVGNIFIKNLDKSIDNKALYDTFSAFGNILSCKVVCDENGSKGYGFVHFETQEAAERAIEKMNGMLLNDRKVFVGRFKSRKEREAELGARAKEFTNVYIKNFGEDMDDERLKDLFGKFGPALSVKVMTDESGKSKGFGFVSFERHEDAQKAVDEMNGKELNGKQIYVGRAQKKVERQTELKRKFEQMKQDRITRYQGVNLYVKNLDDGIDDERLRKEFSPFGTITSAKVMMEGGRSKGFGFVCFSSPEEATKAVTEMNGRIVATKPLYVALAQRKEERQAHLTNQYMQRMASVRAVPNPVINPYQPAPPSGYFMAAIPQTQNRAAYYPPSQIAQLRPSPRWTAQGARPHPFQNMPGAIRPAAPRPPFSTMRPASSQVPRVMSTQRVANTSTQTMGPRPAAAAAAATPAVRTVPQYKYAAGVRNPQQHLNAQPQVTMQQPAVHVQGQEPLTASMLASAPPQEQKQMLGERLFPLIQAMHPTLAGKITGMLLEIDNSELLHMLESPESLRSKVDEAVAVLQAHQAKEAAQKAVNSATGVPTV
Experiment [4] concerns the target T3, Polyadenylate-binding protein 1. The experiment can be described thus: MLLE binding blockers, Cy5 peptide tracer – biochemical, fluorescence polarization, Cy5-PAM2 peptide, secondary, miRNA deadenylation inhibitor project, dose response (AID 602260). The experiment is classed as functional. Conditions: read-out: IC50_Mean.
For experiment [5], the target named is T4, Apoptotic protease-activating factor 1 (Homo sapiens, UniProt O14727).
T4 sequence (O14727 whole entry): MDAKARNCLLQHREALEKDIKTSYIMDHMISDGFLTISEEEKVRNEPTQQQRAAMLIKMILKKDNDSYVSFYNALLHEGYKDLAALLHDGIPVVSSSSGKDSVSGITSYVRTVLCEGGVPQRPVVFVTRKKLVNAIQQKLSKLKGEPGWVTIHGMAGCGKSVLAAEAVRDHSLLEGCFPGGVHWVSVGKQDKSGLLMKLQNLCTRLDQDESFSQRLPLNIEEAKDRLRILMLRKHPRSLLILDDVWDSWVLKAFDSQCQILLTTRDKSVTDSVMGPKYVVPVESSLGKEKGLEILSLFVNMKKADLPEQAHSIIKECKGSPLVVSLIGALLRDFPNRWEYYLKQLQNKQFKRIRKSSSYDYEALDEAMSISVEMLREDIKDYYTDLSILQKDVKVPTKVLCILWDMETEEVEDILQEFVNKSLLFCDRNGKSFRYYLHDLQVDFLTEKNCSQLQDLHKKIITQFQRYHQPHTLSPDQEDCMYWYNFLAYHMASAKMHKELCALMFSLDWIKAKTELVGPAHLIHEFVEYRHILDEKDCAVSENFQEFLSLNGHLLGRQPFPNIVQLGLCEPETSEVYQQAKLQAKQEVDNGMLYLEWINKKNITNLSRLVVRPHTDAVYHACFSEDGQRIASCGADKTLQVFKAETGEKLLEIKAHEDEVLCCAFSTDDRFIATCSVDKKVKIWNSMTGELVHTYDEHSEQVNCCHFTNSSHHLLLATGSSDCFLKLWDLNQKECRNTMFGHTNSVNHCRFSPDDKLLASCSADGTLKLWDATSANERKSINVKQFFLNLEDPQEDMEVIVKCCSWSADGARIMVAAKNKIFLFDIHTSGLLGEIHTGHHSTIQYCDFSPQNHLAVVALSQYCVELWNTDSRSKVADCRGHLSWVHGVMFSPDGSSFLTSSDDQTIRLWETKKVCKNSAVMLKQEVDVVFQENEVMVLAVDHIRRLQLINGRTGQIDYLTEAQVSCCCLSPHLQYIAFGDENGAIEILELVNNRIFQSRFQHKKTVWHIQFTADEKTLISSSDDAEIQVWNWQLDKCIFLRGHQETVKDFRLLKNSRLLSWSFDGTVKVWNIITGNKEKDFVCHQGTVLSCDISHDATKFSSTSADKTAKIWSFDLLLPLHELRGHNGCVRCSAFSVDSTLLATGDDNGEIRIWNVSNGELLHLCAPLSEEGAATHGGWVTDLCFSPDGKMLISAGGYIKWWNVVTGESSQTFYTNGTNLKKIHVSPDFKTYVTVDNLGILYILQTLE
The format is functional.

Experiment [6] is described as follows: Trypanosoma cruzi growth suppression in host cells – NIH3T3 host cells, beta-gal luminescence, confirmation (AID 2044).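 Note: intracellular parasites grown in NIH/3T3 mouse fibroblasts as host cells; luminescent beta-galactosidase reporter signal from transgenic T. cruzi replicating inside host cells; inhibitors lower the luminescence signal.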 The experiment is classed as functional, cell-based.
Experiment [7] in a line: NIH3T3 cell viability loss – ATP luminescence, mouse fibroblasts, counter-screen, dose response (AID 2010).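 Note: cells exposed to compound for about 90 hours before reading.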 The experiment is classed as functional, cell-based.
Experiment [8] has as its system BJ. Nature of the experiment: growth inhibition of engineered Ras-driven BJ cells – cell-based, alamar blue fluorescence, cherrypicked samples, dose response (AID 2631).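 Note: confirmatory dose-response assay in RAS-dependent BJ fibroblasts engineered with TERT, LT and ST, with cytotoxicity read by fluorescence.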 The experiment is classed as functional. Conditions: Homo sapiens.
Experiment [9] has as its system BJ. The experiment can be described thus: BJ-TERT fibroblast viability loss – cell-based, RAS-independent, luminescence, dose response (AID 1933). The format is functional. Conditions: Homo sapiens.
Experiment [10] has as its system BJ. Nature of the experiment: cells. The format is functional, cell-based. Conditions: Homo sapiens.
Experiment [11] relates to BJ. The experiment can be described thus: BJ-TERT-LT-ST fibroblast viability loss – cell-based, RAS-independent, luminescence, dose response (AID 1935).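 Note: BJ fibroblasts immortalized with TERT plus LT and ST oncogenes.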 The format is functional. Conditions: Homo sapiens.
Experiment [12] can be described thus: DRD fibroblast viability loss – cell-based, non-viral oncogenic, luminescence, dose response (AID 1934). The format is functional. Conditions: Homo sapiens.

Chain of Voltage-gated inwardly rectifying potassium channel KCNH2 (Q12809 whole entry): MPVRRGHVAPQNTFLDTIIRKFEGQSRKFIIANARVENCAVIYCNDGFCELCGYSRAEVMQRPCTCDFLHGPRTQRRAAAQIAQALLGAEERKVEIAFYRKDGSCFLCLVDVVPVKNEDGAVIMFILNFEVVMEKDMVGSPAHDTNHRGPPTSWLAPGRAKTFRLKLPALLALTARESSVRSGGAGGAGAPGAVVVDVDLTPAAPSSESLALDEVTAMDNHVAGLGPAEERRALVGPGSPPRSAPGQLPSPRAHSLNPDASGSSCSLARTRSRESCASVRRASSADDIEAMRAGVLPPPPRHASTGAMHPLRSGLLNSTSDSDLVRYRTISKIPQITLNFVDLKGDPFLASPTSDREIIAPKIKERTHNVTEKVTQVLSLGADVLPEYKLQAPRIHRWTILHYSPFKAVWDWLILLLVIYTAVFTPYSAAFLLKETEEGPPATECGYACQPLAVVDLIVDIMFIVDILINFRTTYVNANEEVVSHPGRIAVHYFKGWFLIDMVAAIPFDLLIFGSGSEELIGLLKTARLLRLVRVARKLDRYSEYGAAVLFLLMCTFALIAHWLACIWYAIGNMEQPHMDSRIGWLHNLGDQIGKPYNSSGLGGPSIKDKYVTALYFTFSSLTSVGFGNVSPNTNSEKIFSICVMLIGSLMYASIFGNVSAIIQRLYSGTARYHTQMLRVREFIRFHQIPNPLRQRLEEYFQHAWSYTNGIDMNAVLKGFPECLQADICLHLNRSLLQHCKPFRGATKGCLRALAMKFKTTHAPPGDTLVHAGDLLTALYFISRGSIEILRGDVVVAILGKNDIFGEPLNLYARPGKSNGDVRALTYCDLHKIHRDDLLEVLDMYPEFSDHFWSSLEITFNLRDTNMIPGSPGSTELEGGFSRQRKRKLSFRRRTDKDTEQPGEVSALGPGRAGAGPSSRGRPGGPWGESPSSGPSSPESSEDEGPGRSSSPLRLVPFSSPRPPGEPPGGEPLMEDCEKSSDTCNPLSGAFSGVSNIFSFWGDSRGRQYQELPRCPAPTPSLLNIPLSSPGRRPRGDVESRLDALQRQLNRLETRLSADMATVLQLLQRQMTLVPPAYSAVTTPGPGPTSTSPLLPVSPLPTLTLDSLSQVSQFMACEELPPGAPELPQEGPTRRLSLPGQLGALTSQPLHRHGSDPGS

`C(=NC1CCCCC1)=NC1CCCCC1` [DICYCLOHEXYLCARBODIIMIDE]: the AC50 in [1] was 70.8 µM (inconclusive).

On to `O=C(O)C(Cc1ccccc1)N1C(=O)c2c(Cl)c(Cl)c(Cl)c(Cl)c2C1=O` (stereo unspecified), for which the EC50 in [2] was 37.1 µM (active). Further, at Genome polyprotein, the IC50 is 39.7 µM (active).

Take `C#C[C@]1(O)CC[C@H]2[C@@H]3CCC4=Cc5oncc5CC4(C)[C@H]3CCC21C` (stereo partly specified): the AC50 in experiment [1] was 1.58 µM (inconclusive).

With `CCOC(=O)C1OC1c1ccccc1` (stereo unspecified), the AC50 in experiment [1] is 35.5 µM (inconclusive).

As for `CC(=O)c1ccc(NC(=O)c2noc3c2CCCCC3)cc1`, in the experiment on HeLa, the AC50 was > 350 µM (inactive).

Take `O=S(=O)(/N=C(/Sc1ccccc1)c1ccccc1)c1ccccc1`: the IC50 at Estrogen receptor was 10.2 µM (active); in experiment [3], > 66 µM (inactive); in experiment [4], > 66 µM (inactive).

For the compound `CCCCC1=CC2=CC(=O)C(C)(OC(=O)CC)C(=O)C2=CN1Cc1ccc(OC)cc1` (stereo unspecified), the IC50 on Genome polyprotein was > 100 µM (active).

As to `Cc1cc(CN(C)C(=O)c2ccc3nc(Cc4ccccc4F)oc3c2)on1`, the AC50 in the experiment on HeLa is 68.2 µM (active).

As to `COC(=O)[C@H]1[C@H]2C[C@H]3c4[nH]c5ccccc5c4CCN3C[C@H]2CC[C@@H]1O` [RAUWOLSCINE HYDROCHLORIDE], the AC50 in experiment [1] is 25.1 µM (inconclusive).

With `COc1ccc(CN(C)C(=O)c2cc(S(=O)(=O)NCc3ccccc3)ccc2C)c(OC)c1`, the IC50 in [5] is > 100 µM (inactive).

For `C1=C(c2cc3ccccc3cn2)CCCC1`, the AC50 with HeLa is 51.3 µM (active).

As to `Cc1ccc(Nc2cc(C)c3c(O)cccc3n2)cc1C`, the EC50 was 2.81 µM (active) in experiment [6] and > 30 µM (not active) in experiment [7]. The AC50 in the experiment with HeLa is 34.5 µM (active).

As for `O=[N+]([O-])c1ccccc1N/N=C\c1ccccc1Cl`, the EC50 in the experiment with BJ [8] was > 133 µM (inactive); in the experiment with BJ [9], > 150 µM (not active); with BJ [10], 103 µM (active); in the experiment on BJ [11] it was > 150 µM (not active); in [12], 29.8 µM (inconclusive).

With `[H][C@]12[N@]3CC=C[C@@]1(CC)[C@@H](OC(C)=O)[C@](O)(C(=O)OC)C1N(C)c4cc(OC)c([C@@]5(C(=O)OC)CC6CN(CCc7c5[nH]c5ccccc75)CC(O)(CC)C6)cc4[C@@]12CC3` (stereo partly specified), the AC50 in [1] is 35.5 µM (inconclusive).

Consider `C[C@H](N)CN1CCc2ccc(Br)cc21`, for which the AC50 in experiment [1] is 20 µM (inconclusive).

For `CCn1cnc2c(Nc3cccc(Cl)c3)nc(N[C@@H]3CCCC[C@@H]3N)nc21`, the AC50 in [1] is 17.8 µM (inconclusive).

As to `CC(=O)Nc1c(-c2ccc3ccccc3c2)nc2ccccn12`, in the experiment with HeLa, the AC50 was 213 µM (active).
